In US8263655B2, “Methods for treatment of renal failure” (Technion Research and Development Foundation Ltd, priority 2005, dated 2012):

How the values were obtained:
rats with renal ischemia = assay: Rat renal ischemia-reperfusion injury (IRI) model of acute renal failure, renal clearance study; format: in vivo, Sprague Dawley rats; details: for diuretic and natriuretic responses and GFR in the ischemic kidney: summary statement
Experimental: (§1) (ii) Animals. Studies were conducted on Sprague Dawley rats (Harlan Laboratories Ltd., Jerusalem, Israel), weighing 290˜330 g. The animals were kept in a temperature-controlled room, and were fed standard rat chow containing 0.5% NaCl and tap water ad libitum. All experiments were performed according to the guidelines of the Technion Committee for Supervision of Animal Experiments (Haifa, Israel). Rats were subjected to one of the experimental protocols, described in Examples 1 and 2 hereinafter.
(§2) (iii) Chemical analysis. Sodium concentration in plasma and urine was determined by flame photometry (model IL 943, Instrumentation Laboratory). Inulin and creatinine concentrations were determined by the colorimetric anthrone method. Glomerular filtration rate (GFR) was equated with the clearance of inulin or creatinine.
For this purpose, the effects of either rasagiline or S-(−)-N-propargyl-1-aminoindan on renal clearance parameters, i.e., glomerular filtration rate (GFR), absolute and fractional sodium excretion rates (UNaV and FENa, respectively), and urinary flow (V) were studied in rats that underwent renal ischemia. Rats that underwent the same procedure, but were treated with vehicle, served as controls.
The surgical procedure for the induction of renal ischemia has been previously described (Sela et al., 1992). Briefly, the animals were anesthetized with Inactin (100 mg/kg, i.p.), placed on a thermo-regulated (37° C.) surgical table and prepared for hemodynamic and clearance studies (Brodsky et al., 1998). After tracheotomy, polyethylene tubes (PE50) were inserted into the carotid artery, jugular vein and urinary bladder for blood pressure monitoring, infusion of various solutions and urine collections, respectively. A solution of 2% inulin in 0.9% saline was infused throughout the experiment at a rate of 1.0% of body weight per hour. […] Then, the left kidney was exposed and the renal artery was clamped for forty-five minutes of ischemia, followed by 60 min of reperfusion. The right kidney served as the control, for each animal. Thirty minutes prior to the induction of the renal ischemia, animals were treated with either rasagiline or S-(−)-N-propargyl-1-aminoindan administered as a bolus injection (1.0 mg/kg, I.V.), followed by a sustained infusion of the drugs at a dose of 2 mg/kg/h throughout the whole experiment. Animals treated with saline served as controls. Then, two additional clearance periods were obtained under the influence of the drug. Urine volume was determined gravimetrically. Blood samples were obtained in the midst of every 2nd clearance period.

rats with CHF = assay: Chronic administration to rats with experimental congestive heart failure (aortocaval fistula), renal excretory parameters; format: in vivo, Sprague Dawley rats; details: for diuretic and natriuretic responses in rats with congestive heart failure: summary statement
Experimental: as §1, §2
Following surgery, the rats were allowed to recover and housed in individual metabolic cages for measurements of daily urine volume and urinary sodium/potassium excretion.
Rasagiline or S-(−)-N-propargyl-1-aminoindan were dissolved in drinking water and given orally at a dose of 1 or 7.5 mg/kg/day for 5 days to normal rats. Following this period, the animals were subjected either to sham operation (n=6) or to creation of aortocaval fistula (ACF) (n=6) as described above. These experimental groups were treated daily by gavage with 1 or 7.5 mg/kg of rasagiline or S-(−)-N-propargyl-1-aminoindan for additional 14 days, and their daily urine volume, sodium and potassium excretion were measured. Rats treated with vehicle (water) served as controls. After completion of the treatment period, animals from the different experimental groups were killed by decapitation and their blood was collected in pre-cooled tubes. Rats with sham operation or animals with arterio-venous fistula treated with vehicle served as controls.

C#CCN[C@H]1CCc2ccccc21 [S-(−)-N-propargyl-1-aminoindan]
glomerular filtration rate (GFR), function of the ischemic kidney (rats with renal ischemia; ischemic (left) kidney, 1.0 mg/kg I.V. bolus 30 min prior to ischemia, then 2 mg/kg/h infusion, 45 min ischemia, 60 min reperfusion, FIG. 1B): improved the function of the ischemic kidney | fractional excretion of Na+ (FENa) by ischemic kidney (rats with renal ischemia; ischemic kidney, 1.0 mg/kg I.V. bolus, then 2 mg/kg/h infusion, FIG. 2B): enhanced FENa by ischemic kidney more than rasagiline | fractional excretion of Na+ (FENa) by normal kidney (rats with renal ischemia; normal kidney, 1.0 mg/kg I.V. bolus, then 2 mg/kg/h infusion, FIG. 2A): increased the fractional excretion of Na^+ (FENa) by normal kidney | diuretic and natriuretic responses and GFR in the ischemic kidney (rats with renal ischemia; ischemic kidney): diuretic and natriuretic responses accompanied by improved GFR | GFR (creatinine clearance test) (rats with CHF; rats with CHF, 1 or 7.5 mg/kg/day by gavage for 2 weeks, FIG. 6): enhanced GFR | urinary flow rate (daily urine volume) (rats with CHF; rats with CHF, 1 or 7.5 mg/kg/day orally, 14 days after fistula, FIGS. 3A-3B): increased the urinary flow rate | absolute (daily) urinary sodium excretion (rats with CHF; rats with CHF, 1 or 7.5 mg/kg/day orally, 14 days, FIG. 4): markedly enhanced | cumulative urinary sodium excretion (rats with CHF; rats with CHF, 1 or 7.5 mg/kg/day orally, 14 days, FIG. 5): markedly enhanced | diuretic and natriuretic responses in rats with congestive heart failure (rats with CHF): significant diuretic and natriuretic responses

C#CCN[C@@H]1CCc2ccccc21 [rasagiline, R(+)-N-propargyl-1-aminoindan, reference compound]
diuretic and natriuretic responses and GFR in the ischemic kidney (rats with renal ischemia; ischemic kidney): diuretic and natriuretic responses accompanied by improved GFR | diuretic and natriuretic responses in rats with congestive heart failure (rats with CHF): significant diuretic and natriuretic responses
